Results reported in US10004775B2, “Inhibition of hypoxia-inducible factor activity with carica papaya extracts” (The Regents of the University of California, priority 2013, dated 2018).

How the values were obtained:
Saos-2 cells = assay: MTT assay of cell viability after 24 h treatment in normoxic or hypoxic conditions; type: cell-based, human; conditions: FIG. 1A
Experimental: The leaves were washed with distilled water and left to air-dry at room temperature or in an oven at 40° C. until a constant weight was obtained. Dried leaves were then blended into a powder form, soaked and extracted in methanol at a 1:3 ratio (w/v) for three days at room temperature. Extracts were filtered by Whatman No. 1 filter paper with the aid of a vacuum pump. The residues were re-extracted twice using the same methanolic method. Filtrates were then concentrated by rotary evaporator at a maximum of 40° C. Concentrated extracts were collected in glass vials with push-in caps and dried in an oven at 40° C. until a constant weight was obtained. All of the crude extracts were stored −80° C. […] These concentrations were determined empirically and selected to cover a range of effects, ranging from no effect to significant cytotoxicity. […] After a further 4 h of incubation in 5% CO2 at 37° C., formazan precipitates that formed were dissolved with 100 μl of DMSO and the reaction was read in a microplate reader (Model 550, BioRad, Hercules, Calif.) at 570 nm absorbance and 630 nm as the reference wavelength.

HIF = HIF reporter assay (hypoxia-driven firefly luciferase reporter); type: cell-based, human; conditions: cisplatin 0.1 mM; hypoxic HRE-luc Saos2 cells
Experimental: A human osteosarcoma cell line, Saos-2 stably expressing four copies of the erythropoietin hypoxia response elements (HRE-luc Saos2; […] et al., Malaysian Patent Application #: PI 2012003492), was cultured in DMEM medium (PAA, USA) supplemented with 10% (v/v) fetal bovine serum (FBS; PAA, USA) and 1% (v/v) antibiotic-antimycotic (PAA, USA) in a humidified incubator supplied with ambient oxygen and 5% CO2 at 37° C. An hypoxic gaseous environment was created by incubating cells in a ProOx in vitro chamber (BioSpherix), controlled by ProOx model 110 (BioSpherix). The cells were supplied 0.5% O2, 94.5% N2 and 5% CO2 at 37° C. Cells were co-transfected with a hypoxia-driven firefly luciferase reporter plasmid construct containing four copies of the erythropoietin (EPO) hypoxia response elements (HRE) and a pRL-CMV expressing Renilla luciferase as described previously (Kaluz et al., 2008, […] et al., 2009, […] et al. Malaysian Patent Application No. PI 2012003492). Transfected cells were treated with appropriate concentrations of plant extracts and incubated in either normoxic or hypoxic conditions. After 24 h, firefly and Renilla luciferase signal intensities were measured (Kaluz et al., 2008, […] et al, 2009). Percent HIF inhibition was calculated as a ratio of the difference between untreated and plant extract-treated sample to the untreated sample. […]

Row | Structure (SMILES) | IC50 in hypoxia compared with normoxia, in words (Saos-2 cells) | percent HIF inhibition (HIF)
1 | CN1C(=O)[C@]2(Cc3cn([C@]45C[C@@]67SS[C@@](CO)(C(=O)N6[C@H]4Nc4ccccc45)N(C)C7=O)c4ccccc34)SS[C@@]1(CO)C(=O)N2C [chetomin] | increased in hypoxia | 
2 | N.N.[Cl][Pt][Cl] [cisplatin] | significantly higher than in normoxia | around 60%
